Reference: paper PMC8507260, “A2E-induced inflammation and angiogenesis in RPE cells in vitro are modulated by PPAR-α, -β/δ, -γ, and RXR antagonists and by norbixin” (Aging (Albany NY), 2021)

Assays:
PPAR = assay: Endogenous PPAR transactivation, luciferase reporter in primary porcine RPE cells; format: cell-based; settings: A2E 20 μM; for effect on endogenous PPAR transactivation induced by A2E: MK886 1 μM, GSK3787 1 μM, T007907 10 μM, separately or as mixture
Experimental: (§1) Pig eyes were obtained from a local slaughterhouse and transported to the laboratory in ice-cold Ringer solution. After removal of the anterior segment of the eye, the vitreous and neural retina was separated from the RPE and removed. The eyecup was washed twice with phosphate buffer saline (PBS), filled with trypsin (0.25% in PBS) and incubated at 37°C for 1.5 h. RPE cells were harvested by gently pipetting, centrifuged to remove trypsin and re-suspended in Dulbecco’s Modified Eagle Medium (DMEM) supplemented with 20% (v/v) foetal-calf serum (DMEM20%FCS) and 0.1% gentamycin. Cells were seeded into 60 mm diameter Petri dishes, cultured in an atmosphere of 5% CO2/95% air at 37°C, and supplied with fresh medium after 24 hours and 4 days in vitro. For experiments aimed at measuring mRNA or protein expression in RPE, cells were trypsinized after one week in culture and transferred to 24-well or 6-well plates at a density of 1.5 × 10^5 cells/cm^2 in DMEM2%FCS. Norbixin or agonists were added to the medium 24 h after seeding, and antagonists were added to the medium 24 h later. A2E treatment was performed during 19 h before cellular sample preparation. All the drugs used in these experiments were prepared as stock solutions in DMSO.
(§2) After one week in culture, cells were trypsinized and transferred to a 96-well plate at a density of 6 × 10^4 cells/cm^2 in DMEM2%FCS. The next day, cells were transfected using the Cignal Reporter Assay Kits for PPAR, RXR, AP-1 and NF-κB, according to the manufacturer’s specifications. To measure the specific activation of PPAR isoforms, cells were also co-transfected with PPAR-α, PPAR-β/δ or PPAR-γ expression vectors. Transfection was performed with Lipofectamine and Plus Reagent in serum-free medium. 3 h after the transfection, the medium was replaced and treatments with the molecules to assay were performed. Luciferase activity was measured the next day using the Dual-Luciferase Reporter Assay System. The measurements were performed with a luminometer (Infinite M1000 from Tecan, Mannedorf, Switzerland). Firefly: Renilla activity ratios were calculated for each condition and ratios from transcription factor-responsive reporter transfections were divided by ratios from negative control transfections to obtain relative luciferase unit, as described by the manufacturer. At least 3 independent transfections were performed in triplicate for each condition.

IL-6 = IL-6 mRNA expression by quantitative RT-PCR in porcine RPE cells; format: cell-based; settings: T007907 10 μM; for reduction of IL-6 mRNA expression induced by A2E: NBX 20 μM with A2E 30 μM, MK886 1 μM, GSK3787 1 μM, HX531 5 μM with A2E 20 μM
Experimental: as §1
(§3) Total RNA was extracted using the NucleoSpin® RNA kit according to manufacturer’s instructions. RT of 500 ng of RNA was performed using the SuperScript III Reverse Transcriptase following the manufacturer’s instructions. Five ng of cDNA were amplified using the SYBR GREEN real-time PCR method. PCR primers for target genes and housekeeping gene GAPDH were designed using Primer3Plus Bioinformatic software (Table 2). The RT-PCR using the StepOne Plus (Life Technologies, Carlsbad, CA, USA) consisted of incubation at 50°C for 5 min followed by 40 cycles of 95°C for 15 s and of 60°C for 1 min. The reaction was completed by a melt curve stage at 95°C for 15 s, 60°C for 1 min, 95°C for 15 s and a final step at 60°C for 15 s. The relative mRNA expression was calculated using the comparative threshold method (Ct-method) with GAPDH for normalization. All experimental conditions were processed in triplicate and each experiment was done at least 3 times.

IL-8 = IL-8 mRNA expression by quantitative RT-PCR in porcine RPE cells; format: cell-based; settings: A2E 20 μM; MK886 1 μM, GSK3787 1 μM, T007907 10 μM, HX531 5 μM
Experimental: as §1, §3

NF-κB = NF-κB transactivation, luciferase reporter in porcine RPE cells; format: cell-based; settings: A2E 20 μM, T007907 10 μM; for inhibition of NF-κB transactivation induced by A2E: NBX 20 μM, HX531 5 μM
Experimental: as §1, §2

PPAR-α [1] = target: T1, PPAR-α (Homo sapiens, UniProt Q07869); settings: stated without reference; cited from earlier work
T1 construct: Eurofins Cerep (contract laboratory that ran the assay)
T1 sequence (Q07869 1-468): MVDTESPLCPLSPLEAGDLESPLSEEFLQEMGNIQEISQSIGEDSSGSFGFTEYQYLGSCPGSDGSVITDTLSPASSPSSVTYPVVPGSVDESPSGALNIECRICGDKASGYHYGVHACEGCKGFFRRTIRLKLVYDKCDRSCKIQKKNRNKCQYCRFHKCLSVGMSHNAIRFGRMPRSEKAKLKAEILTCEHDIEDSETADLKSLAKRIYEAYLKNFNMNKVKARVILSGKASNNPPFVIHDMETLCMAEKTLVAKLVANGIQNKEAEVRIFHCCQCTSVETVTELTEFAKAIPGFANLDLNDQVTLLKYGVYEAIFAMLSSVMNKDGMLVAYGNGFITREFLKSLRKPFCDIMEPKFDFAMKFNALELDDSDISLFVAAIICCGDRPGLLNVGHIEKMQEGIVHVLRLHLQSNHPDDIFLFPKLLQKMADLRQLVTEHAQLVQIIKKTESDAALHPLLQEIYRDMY

PPAR-α [2] = assay: Transactivation of over-expressed PPAR-α, luciferase reporter in porcine RPE cells; format: cell-based, pig; settings: vs DMSO control; A2E 20 μM; NBX increasing concentrations
Experimental: First, we evaluated the binding profile of A2E to all three isoforms of PPAR. […] Then the effects of A2E on the endogenous PPAR transactivation in porcine RPE cells were investigated by means of a luciferase assay. […] The level of transactivation of PPAR-α, -β/δ, or -γ isoforms by A2E was determined by co-transfection of porcine RPE cells with a plasmid expressing each of the full-length PPAR isoforms and a plasmid expressing luciferase under the control of the PPAR response element. […]. All usual chemicals, primers, and HX531 were from Sigma (St. Louis, MO, USA). Reagents for cell culture, transfection and quantitative RT-PCR were from Thermo Fisher Scientific (Waltham, MA, USA). RNA extraction NucleoSpin® RNA kit was from Macherey Nagel (Düren, Germany). ECL prime and PVDF membrane were from Amersham GE Healthcare (Buckinghamshire, UK). Primary antibodies against the following proteins were used: GAPDH (Santa Cruz Biotechnology, Inc, Dallas, TX, USA); pAKT, AKT, pERK and ERK (Cell Signaling, Danvers, MA, USA). Secondary antibodies were from Jackson ImmunoResearch (Cambridgeshire, UK). […] Cignal Pathway Reporter Assay Kits were from QIAGEN (Frederick, MD, USA). The Dual-Luciferase Reporter Assay System was purchased from Promega (Madison, WI, USA). pcDNA 3.1 (+)-PPARα and pcDNA 3.1 (+)-PPARβ/δ (pig sequence) were purchased from Genscript (Piscataway, NJ, USA). pCMV6-XL4-PPARγ (human sequence) was purchased from Origene (Rockville, MD, USA).
as §2

RXR = assay: Endogenous RXR transactivation, luciferase reporter in porcine RPE cells; format: cell-based; settings: NBX 20 μM
Experimental: as §1, §2

AP-1 = AP-1 transactivation, luciferase reporter in porcine RPE cells; format: cell-based; settings: A2E 20 μM; NBX 20 μM, HX531 5 μM
Experimental: as §1
as §2, with “Transfection was performed with Lipofectamine and Plus Reagent in serum-free medium. 3 h after the transfection, the medium was replaced and treatments with the molecules to assay were performed.” left out, “The measurements were performed with a luminometer (Infinite M1000 from Tecan, Mannedorf, Switzerland).” left out, “At least 3 independent transfections were performed in triplicate for each condition.” left out

VEGF = VEGF mRNA expression by quantitative RT-PCR in porcine RPE cells; format: cell-based; settings: HX531 5 μM + A2E 20 μM
Experimental: as §1
as §3, with “All experimental conditions were processed in triplicate and each experiment was done at least 3 times.” left out

## CC(C)c1ccc2c(c1)c(SC(C)(C)C)c(CC(C)(C)C(=O)O)n2Cc1ccc(Cl)cc1 [MK886]
PPAR
  effect on endogenous PPAR transactivation induced by A2E: did not significantly inhibit
IL-6
  reduction of IL-6 mRNA expression induced by A2E: 58.7%
IL-8
  inhibition of IL-8 mRNA expression induced by A2E: 37%

## O=C(Nc1ccncc1)c1cc([N+](=O)[O-])ccc1Cl [T007907]
NF-κB
  inhibition of NF-κB transactivation induced by A2E: 100%
NF-κB; vs DMSO control
  effect of the compound alone on NF-κB transactivation: inhibited
PPAR
  effect on endogenous PPAR transactivation induced by A2E: did not significantly inhibit
IL-6
  reduction of IL-6 mRNA expression induced by A2E: 69.6%
IL-6; vs DMSO control
  effect of the compound alone on IL-6 mRNA expression: enhanced
IL-8
  inhibition of IL-8 mRNA expression induced by A2E: 45.9%

## CCCCCCCN(CCc1ccc(SC(C)(C)C(=O)O)cc1)C(=O)Nc1ccc(F)cc1F [GW9578]
PPAR-α [1]
  binding affinity to PPAR-α: nanomolar range
PPAR-α [2]
  transactivation of over-expressed PPAR-α by the compound alone: induced transactivation

## CN1c2ccc([N+](=O)[O-])cc2N=C(c2ccc(C(=O)O)cc2)c2cc3c(cc21)C(C)(C)CCC3(C)C [HX531]
RXR; A2E 20 μM, HX531 5 μM
  inhibition of RXR transactivation induced by A2E: 50.1%
AP-1
  inhibition of AP-1 transactivation induced by A2E: 100%
NF-κB
  inhibition of NF-κB transactivation induced by A2E: 100%
PPAR; NBX 20 μM, HX531 5 μM (HX531 effect not significant)
  inhibition of endogenous PPAR transactivation induced by A2E: 30%
IL-6
  reduction of IL-6 mRNA expression induced by A2E: 88.6%
IL-8
  inhibition of IL-8 mRNA expression induced by A2E: 99.6%
VEGF
  lowering of VEGF mRNA expression induced by A2E: 76.8%

## O=C(NCCS(=O)(=O)c1ccc(C(F)(F)F)cn1)c1ccc(Cl)cc1 [GSK3787]
PPAR
  effect on endogenous PPAR transactivation induced by A2E: did not significantly inhibit
IL-6
  reduction of IL-6 mRNA expression induced by A2E: 45%
IL-8
  inhibition of IL-8 mRNA expression induced by A2E: 35%

## CC1(C)CCC(C)(C)c2cc3c(cc21)Sc1ccccc1N=C3c1ccc(C(=O)O)cc1 [HX630]
RXR; HX630 5 μM, vs DMSO control
  transactivation of RXRs by the compound alone: transactivation induced by HX630
